{"source": "patent US9273095B2", "about": "“Antibiotic peptide and preparation method therefor and application therefor” (priority 2011, dated 2016)", "system": "Candida albicans and Escherichia", "assay": "Therapeutic experiment of injection on mice with multiple mixed infections, survival time", "format": "in vivo, ICR mice", "settings": "for Mean survival Time / average survival time: observed fourteen days; for Mean survival Time / Mortality of mice in different days after infection: n = 20; for average survival time: injection through caudal vena twice a day for three days", "procedure": "There are 60 male and 60 female ICR mice with the weight ranging from 18 g to 22 g. According to their weight, they are randomly divided into 6 groups of 20 mice: blank control group, negative control group, Levofloxacin positive control group, and high, middle and low dose of PL-18 (SEQ ID NO: 1) group. With trinitrophenal marking method, all the mice are raised with ordinary animal feeds in the ordinary animal houses and they can drink water freely. Alternating of light and dark is conducted every 12 hours.\n2. Infected Strains: Candida albicans and Escherichia\nPL-18 (SEQ ID NO: 1) freeze-dried powder injection (supplied by Jiangsu ProteLight Pharmaceutical & Biotechnology Co., LTD.), Levofloxacin Hydrochloride and Sodium Chloride Injection (supplied by Yangtze River Pharmaceutical Group) and 0.9% Sodium Chloride Injection (supplied by Chifeng Rongjitang Pharmaceutical CO., Ltd.)\n(1) The preparation of bacterial suspension is the same as above.\n(2) The Candida albicans suspension cultured overnight is diluted to 1×10^6CFU/ml with Sodium Chloride and 5×10^5CFU of which is injected into abdominal cavity of every mouse; the Escherichia suspension cultured overnight is diluted to 2×10^8CFU/ml and 1×10^7CFU of which is injected into abdominal cavity of every mouse to make model with mixed infections.\n(3) The blank control group is injected with normal saline into their abdominal cavity, the positive control group is injected with Levofloxacin into their abdominal cavity.\n(4) Administration: The drugs are administered according to weight right after the model is ready. All the groups except the blank and the infected negative control group are injected with different dosage of different injections through caudal vena twice a day successively for three days, and they are observed for fourteen days.\n(5) Observe death of the animals and record their survival time.", "note": "Marks after values point to notes of the source that are not given here. Non-standard residues stand in square brackets, D forms with d. Residues, ends and D or L forms follow the SMILES beside them.", "data": [{"smiles": "C[C@H]1COc2c(N3CCN(C)CC3)c(F)cc3c(=O)c(C(=O)O)cn1c23", "note": "[Levofloxacin, levofloxacin, reference compound]", "values": [{"measurement": "Mean survival Time", "setting": "30 mg/kg", "result": "3.9* day"}, {"measurement": "Mortality of mice in different days after infection", "setting": "day 1, 30 mg/kg", "result": 8}, {"measurement": "Mortality of mice in different days after infection", "setting": "day 2, 30 mg/kg", "result": 6}, {"measurement": "Mortality of mice in different days after infection", "setting": "day 3, 30 mg/kg", "result": 2}, {"measurement": "Mortality of mice in different days after infection", "setting": "day 4, 30 mg/kg", "result": 0}, {"measurement": "Mortality of mice in different days after infection", "setting": "day 5, 30 mg/kg", "result": 0}]}, {"smiles": "CC(=O)N[C@H](Cc1ccccc1)C(=O)N[C@H](CCCCN)C(=O)N[C@H](CCCCN)C(=O)N[C@H](CC(C)C)C(=O)N[C@H](CCCCN)C(=O)N[C@H](CCCCN)C(=O)N[C@H](CC(C)C)C(=O)N[C@H](Cc1ccccc1)C(=O)N[C@H](CO)C(=O)N[C@H](CCCCN)C(=O)N[C@H](CC(C)C)C(=O)N[C@H](Cc1c[nH]c2ccccc12)C(=O)N[C@H](CC(N)=O)C(=O)N[C@H](Cc1c[nH]c2ccccc12)C(=O)N[C@H](CCCCN)C(N)=O", "note": "[PL-18] (Ac-[dF][dK][dK][dL][dK][dK][dL][dF][dS][dK][dL][dW][dN][dW][dK]-NH2)", "values": [{"measurement": "Mean survival Time", "setting": "0.2 mg/kg (low) caudal vena twice a day for three days", "result": "4.4* day"}, {"measurement": "Mean survival Time", "setting": "1 mg/kg (middle) caudal vena twice a day for three days", "result": "5.7** day"}, {"measurement": "curative effect on mice with multiple mixed infection (in words)", "setting": "1 mg/kg dosage injection", "result": "best curative effect"}, {"measurement": "Mean survival Time", "setting": "5 mg/kg (high) caudal vena twice a day for three days", "result": "5.3** day"}, {"measurement": "Mortality of mice in different days after infection", "setting": "day 1, 0.2 mg/kg (low) caudal vena twice a day for three days", "result": 4}, {"measurement": "Mortality of mice in different days after infection", "setting": "day 1, 1 mg/kg (middle) caudal vena twice a day for three days", "result": 5}, {"measurement": "Mortality of mice in different days after infection", "setting": "day 1, 5 mg/kg (high) caudal vena twice a day for three days", "result": 5}, {"measurement": "Mortality of mice in different days after infection", "setting": "day 2, 0.2 mg/kg (low) caudal vena twice a day for three days", "result": 4}, {"measurement": "Mortality of mice in different days after infection", "setting": "day 2, 1 mg/kg (middle) caudal vena twice a day for three days", "result": 4}, {"measurement": "Mortality of mice in different days after infection", "setting": "day 2, 5 mg/kg (high) caudal vena twice a day for three days", "result": 5}, {"measurement": "Mortality of mice in different days after infection", "setting": "day 3, 0.2 mg/kg (low) caudal vena twice a day for three days", "result": 5}, {"measurement": "Mortality of mice in different days after infection", "setting": "day 3, 1 mg/kg (middle) caudal vena twice a day for three days", "result": 3}, {"measurement": "Mortality of mice in different days after infection", "setting": "day 3, 5 mg/kg (high) caudal vena twice a day for three days", "result": 2}, {"measurement": "Mortality of mice in different days after infection", "setting": "day 4, 0.2 mg/kg (low) caudal vena twice a day for three days", "result": 2}, {"measurement": "Mortality of mice in different days after infection", "setting": "day 4, 1 mg/kg (middle) caudal vena twice a day for three days", "result": 2}, {"measurement": "Mortality of mice in different days after infection", "setting": "day 4, 5 mg/kg (high) caudal vena twice a day for three days", "result": 1}, {"measurement": "Mortality of mice in different days after infection", "setting": "day 5, 0.2 mg/kg (low) caudal vena twice a day for three days", "result": 2}, {"measurement": "Mortality of mice in different days after infection", "setting": "day 5, 1 mg/kg (middle) caudal vena twice a day for three days", "result": 0}, {"measurement": "Mortality of mice in different days after infection", "setting": "day 5, 5 mg/kg (high) caudal vena twice a day for three days", "result": 2}, {"measurement": "average survival time", "setting": "high dosage group", "result": 5.3, "unit": "days"}, {"measurement": "average survival time", "setting": "low dosage group", "result": 4.4, "unit": "days"}, {"measurement": "average survival time", "setting": "middle dosage group", "result": 5.7, "unit": "days"}]}]}
